Test system: A-431
Experiment: Antiproliferative activity against human A431 cells after 48 hrs by sulforhodamine B assay
Assay type: functional, cell-based
Settings: A-431, 48 h

Question: For COc1ccc(N(C)c2nc(C)nc3oc(C)cc23)cc1OC, which IC50 is on record?
Answer: Its IC50 is 9.7 nM.
